Results as given in US6538029B1, “Methods for treatment of renal cell carcinoma” (Cell Pathways, priority 2002, dated 2003).
Read-outs that look alike come from different tables or passages of the source.

What was measured:
PDE10 from 786-O = PDE10 from 786-O (Homo sapiens, UniProt Q9Y233); experiment: Inhibition and kinetics of PDE10 from 786-O (pooled fractions of the center peak); type: biochemical; settings: for IC50: pooled center-peak fractions
Experimental: (§1) Fractions were pooled from a 786-O profile from the center peak.
as §1
(§2) Protein assays were determined using the Bio-Rad DC Protein Assay. A nonlinear regression to the Michalis-Menten equation in Prism was used to determine the Km and Vmax.
as §2

[1] = molecular target: cloned and expressed human PDE10 (Homo sapiens, UniProt Q9Y233); settings: cited from earlier work; for IC50 / Published IC50s on cloned PDE10, cAMP / Published IC50s on cloned PDE10, cGMP: literature values
Sequence of cloned and expressed human PDE10 (Q9Y233 1-779 isoform Q9Y233-1): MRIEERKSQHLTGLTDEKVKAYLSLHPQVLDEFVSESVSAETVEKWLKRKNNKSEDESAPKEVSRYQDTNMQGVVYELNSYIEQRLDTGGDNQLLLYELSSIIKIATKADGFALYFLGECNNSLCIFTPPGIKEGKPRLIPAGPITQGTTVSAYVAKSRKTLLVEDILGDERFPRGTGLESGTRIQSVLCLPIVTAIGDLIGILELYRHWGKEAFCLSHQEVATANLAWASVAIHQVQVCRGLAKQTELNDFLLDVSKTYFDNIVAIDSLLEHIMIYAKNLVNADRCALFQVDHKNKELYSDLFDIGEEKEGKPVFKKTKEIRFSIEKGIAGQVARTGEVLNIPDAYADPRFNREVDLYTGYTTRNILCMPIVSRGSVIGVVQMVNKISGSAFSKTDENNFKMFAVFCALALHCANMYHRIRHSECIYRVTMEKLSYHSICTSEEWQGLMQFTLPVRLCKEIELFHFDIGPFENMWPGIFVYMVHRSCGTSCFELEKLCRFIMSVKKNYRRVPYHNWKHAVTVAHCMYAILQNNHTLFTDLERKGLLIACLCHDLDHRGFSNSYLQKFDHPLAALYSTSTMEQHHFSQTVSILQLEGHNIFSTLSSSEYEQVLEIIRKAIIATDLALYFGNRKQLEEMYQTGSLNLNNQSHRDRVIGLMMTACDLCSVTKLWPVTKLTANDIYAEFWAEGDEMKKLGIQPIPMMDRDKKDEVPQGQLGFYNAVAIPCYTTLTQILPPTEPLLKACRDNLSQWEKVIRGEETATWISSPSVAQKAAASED

786-O cells [2] = experiment: Apoptosis on 786-O cells (Roche Cell Death Assay); type: cell-based, human; settings: 48 hours with drug
Experimental: Testing of PDE10-Inhibiting Compounds for Apoptosis on Renal Carcinoma (786-O) Cells. […] After 24 hours, the media was removed and the same media containing the drug was added to the cells (0.1% DMSO final concentration). After 48 hours, apoptosis was detected using the Roche Cell Death Assay.

786-O cells [3] = type: cell-based; settings: Homo sapiens, 786-0, 144 h; 6 days with drug, sulforhodamine B
Experimental: Testing of Neoplastic Cell Growth Inhibition of PDE10-Inhibiting Compounds on Renal Cell Carcinoma (786-O) Cells. […] After 24 hours, the media was removed, and the same media containing the drug was added to the cells (0.1% DMSO final concentration).

[4] = read-out: μM IC50s on PDE10 from 786-O, cAMP, cAMP substrate at 0.09 μM, table: N = 2 average, EHNA, Milrinone, Rolipram N = 1
[5] = read-out: μM IC50s on PDE10 from 786-O, cGMP, cGMP substrate at 5.5 μM, table: N = 2 average, EHNA, Milrinone, Rolipram N = 1
[6] = read-out: Published IC50s on cloned PDE10, cAMP, cAMP as substrate
[7] = read-out: Published IC50s on cloned PDE10, cGMP, cGMP as substrate
[8] = μM IC50s on PDE10 from 786-O, cAMP, cAMP substrate at 0.09 μM, table: N = 2 average, EHNA, Milrinone, Rolipram N = 1
[9] = μM IC50s on PDE10 from 786-O, cGMP, cGMP substrate at 5.5 μM, table: N = 2 average, EHNA, Milrinone, Rolipram N = 1

Sequence of PDE10 from 786-O (Q9Y233 290-1055 limits assumed): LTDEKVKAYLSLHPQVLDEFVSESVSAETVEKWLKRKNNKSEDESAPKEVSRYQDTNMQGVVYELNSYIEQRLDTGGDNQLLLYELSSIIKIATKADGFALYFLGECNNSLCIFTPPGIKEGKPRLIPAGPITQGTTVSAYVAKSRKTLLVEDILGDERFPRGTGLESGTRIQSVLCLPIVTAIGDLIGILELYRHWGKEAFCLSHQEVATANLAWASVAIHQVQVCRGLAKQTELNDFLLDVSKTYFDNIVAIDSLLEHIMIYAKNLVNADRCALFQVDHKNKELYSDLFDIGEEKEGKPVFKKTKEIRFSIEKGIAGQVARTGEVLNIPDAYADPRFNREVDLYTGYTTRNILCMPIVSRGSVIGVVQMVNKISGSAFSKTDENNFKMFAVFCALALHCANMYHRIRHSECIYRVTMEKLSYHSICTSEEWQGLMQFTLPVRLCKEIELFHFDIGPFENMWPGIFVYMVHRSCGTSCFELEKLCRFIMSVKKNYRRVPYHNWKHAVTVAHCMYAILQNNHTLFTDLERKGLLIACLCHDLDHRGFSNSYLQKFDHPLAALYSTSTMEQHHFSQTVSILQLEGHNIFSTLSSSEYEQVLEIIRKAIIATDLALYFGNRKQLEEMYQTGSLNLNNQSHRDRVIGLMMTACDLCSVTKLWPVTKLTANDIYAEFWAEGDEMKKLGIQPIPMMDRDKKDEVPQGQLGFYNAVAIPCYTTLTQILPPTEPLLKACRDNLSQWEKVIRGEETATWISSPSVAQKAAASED

| IC50 (PDE10 from 786-O; [4]) | IC50 (PDE10 from 786-O; [5]) | IC50 (PDE10 from 786-O; [8]) | IC50 (PDE10 from 786-O; [9]) | SMILES | IC50 [1, 6] | IC50 [1, 7] | Published IC50s on cloned PDE10, cGMP ([1]; cGMP as substrate) | other results |
| --- | --- | --- | --- | --- | --- | --- | --- | --- |
| 60 µM | 46 µM | – | – | CCCCCC[C@@H]([C@@H](C)O)n1cnc2c(N)ncnc21 (racemic) [EHNA] | > 100 µM | > 100 µM | – | – |
| 4.5 µM | 6.3 µM | – | – | CC(C)Cn1c(=O)n(C)c(=O)c2[nH]cnc21 [IBMX] | 17 µM | 11 µM | – | – |
| 5.2 µM | – | – | – | Nc1nc2c(ncn2[C@@H]2O[C@@H]3COP(=O)(O)O[C@H]3[C@H]2O)c(=O)[nH]1 [cGMP, cyclic 3′,5′-guanosine monophosphate] | 14 µM | – | – | Km (PDE10 from 786-O; Michaelis-Menten plot, 30 min at 30° C., FIG. 4, 6, read-out: Km for the 786-O PDE): 6.5 µM; Vmax (PDE10 from 786-O; pooled center-peak fraction): 461 pmol/min/mg; Km (PDE10 from 786-O; pooled fractions 57-75 of PDE10, read-out: Km, average of three values (stdev in parenthesis)): 5.5 µM; Vmax ratio of cGMP/cAMP (PDE10 from 786-O; times higher than Vmax for cAMP): 2.4; Vmax ratio of cGMP/cAMP, cloned and expressed PDE10 ([1]; Fujishige et al. 1999): 2.2; Km ([1]; Fujishige et al. 1999, read-out: Km published for cloned and expressed PDE10): 7.2 µM |

The remaining lines, values behind:

| SMILES | IC50 (PDE10 from 786-O; [4]) | IC50 (PDE10 from 786-O; [5]) | IC50 (PDE10 from 786-O; [8]) | IC50 (PDE10 from 786-O; [9]) | IC50 [1, 6] | IC50 [1, 7] | Published IC50s on cloned PDE10, cGMP ([1]; cGMP as substrate) | other results |
| --- | --- | --- | --- | --- | --- | --- | --- | --- |
| COc1cc(/C=C2/C(C)=C(CC(=O)NCc3ccccc3)c3cc(F)ccc32)cc(OC)c1OC [Compound A, 1 H-indene-3-acetamide, 5-fluoro-2-methyl-N-(phenylmethyl)-1-[(3,4,5-trimethoxyphenyl)methylene]-, (1Z)] | – | – | – | – | – | – | – | IC50 (PDE10 from 786-O; IC50 on PDE10 from 786-O (inhibition of cGMP PDE activity), FIG. 10): 0.031 µM; IC50 (786-O cells [2]; Homo sapiens, 786-0, read-out: IC50 for induction of apoptosis in the 786-O cell line): 0.071 µM; IC50 (786-O cells [3]): 0.03 µM |
| O=C(O)C1CCN(c2nc(NCc3ccc4c(c3)OCO4)c3cc(Cl)ccc3n2)CC1 [Example E4021] | 2.8 µM | 3.2 µM | – | – | 7.2 µM | 4.2 µM | – | – |
| CC1=C(CC(=O)O)c2cc(F)ccc2/C1=C\c1ccc(S(C)(=O)=O)cc1 [Exisulind, exisulind, reference compound] | – | – | – | – | – | – | – | IC50 (PDE10 from 786-O; IC50 on PDE10 from 786-O (inhibition of cGMP PDE activity), FIG. 8, 9): 134 µM; Induction of apoptosis in the 786-O cells (786-O cells [2]): did not show significant induction of apoptosis; IC50 (786-O cells [3]): 273 µM |
| Cc1[nH]c(=O)c(C#N)cc1-c1ccncc1 [Milrinone] | – | – | 84 µM | 103 µM | – | – | >100 µM | Published IC50s on cloned PDE10, cAMP ([1]; cAMP as substrate): >100 µM |
| CCOC(=O)C1=C[C@]2(CC)CCCN3CCc4c(n1c1ccccc41)[C@@H]32 [Vinpocetine] | – | – | 38 µM | 45 µM | – | – | 73 µM | Published IC50s on cloned PDE10, cAMP ([1]; cAMP as substrate): 77 µM |
| CCCOc1ccccc1-c1nc2nn[nH]c2c(=O)[nH]1 [Zaprinast] | – | – | 13 µM | 17 µM | – | – | 14 µM | – |
